Measured values as given in patent publication US9765328B2, “Nuclease-resistant DNA analogues” (Arizona Board of Regents on Behalf of Arizona State …, priority 2014, dated 2017).
Entries after “also recorded” stand apart in the source; their conditions may differ. [FANA-N] = 2'-fluoro-arabino (N: the base); {32P} = 5'-32P radiolabel (phosphate); {FAM} = fluorescein (FAM) label

Assays:
[1] = test system: SVPE; conditions: literature; cited from earlier work
[2] = test system: phosphodiesterase I from Crotalus adamanteus venom
[3] = Chemical stability assay in pepsin-free simulated gastric fluid (SGF); conditions: SGF pH 1.25, 37° C.
Experimental: Pepsin-free simulated gastric fluid (SGF) was prepared by autoclaving a solution of NaCl (200 mg) in nanopure water (99 mL) followed by addition of 6N HCl (0.7 mL, pH 1.25). TNA (30 pmol), DNA (45 pmol), and RNA (5 pmol) were added to SGF (20 μL) and incubated for the specified time (up to 72 hours). Following the incubation, the reaction mixture was neutralized by the addition of 1N NaOH and the solutions were stored at −20° C. until the time course was complete. The volume was then reduced to 10 μL, mixed with 10 μL of loading buffer (8 M Urea, 5 mM Tris.HCl, 20 mM EDTA, pH 7.5), and the oligonucleotides were analyzed by denaturing PAGE and imaged.
We compared the chemical stability of the all-TNA strand to DNA and RNA oligonucleotides of identical length and similar sequence. […] For these experiments, pepsin-free simulated gastric fluid (SGF, pH 1.25) and 1 M NaOH were used to maintain parity with previous antisense studies^26. For the acidic regime, the TNA, DNA, and RNA samples were incubated in SGF for 72 hours at 37° C.

[4] = Chemical stability assay, alkaline conditions (1 M NaOH); type: physicochemical; conditions: 65° C.
From the text: The same protocol was used to monitor alkaline stability.

Substance: 2′-fluoro-arabino nucleic acid (AAAACCCACACCACCA; all [FANA-N], backbone and methylation of C not given here)
- t1/2 in human serum: < 3 h
- degradation in the presence of SVPE [1]: degrade in minutes

Substance: 3′-tttCtCtCtCtt-2′ [size-matched TNA/DNA hybrid]
- products of SVPE treatment (FIG. 2) [2]: series of shorter truncated products

Substance: 5′-32P-UCUCUCUCUCUC-3′ (RNA, 5' {32P}, backbone not given here) [RNA 12mer control]
- sample degraded in SGF in the first 12 hours ([3]; first 12 hours): 85%
- time within which the sample is degraded in 1 M NaOH [4]: ≤ 30 min

Substance: 5′-Fam-CCCCCCCCCCCC-3′ (5' {FAM}, sugars by position and backbone not given here) [DNA, all-DNA 12mer control]
- strand stability in simulated gastric fluid after 72 hours (3 days) ([3]; 72 hours): stable; also recorded: remained intact
- stability against snake venom phosphodiesterase (SVPE) [2]: digested
- time after which trace amounts of the sample are still visible in 1 M NaOH [4]: 12 h
